Assay results taken from US12410160B2 (Gilead Sciences, Inc., priority 2021, dated 2025).
Read-outs that look alike come from different tables or passages of the source.

Legend:
human KHK-C = human KHK-C (Homo sapiens (Human), UniProt P50053); experiment: KHK Biochemical Assay (IC50), ADP-Glo, KHK-C; conditions: average of at least two separate assays
Outline: (§1)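 His-tagged enzyme expressed in BL21 (DE3), Ni-NTA purified. Compounds, serially diluted 1:3 in DMSO, pre-incubated 30 min with enzyme in 50 mM Hepes pH 7.4, 140 mM KCl, 5 mM MgCl2, 0.01% Triton-X, then ATP and fructose added; 4 h at room temperature. ADP formation read by ADP-Glo luminescence.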

human KHK-A = human KHK-A (Homo sapiens (Human), UniProt P50053); experiment: KHK Biochemical Assay (IC50), ADP-Glo, KHK-A; conditions: average of at least two separate assays
Outline: as §1

[1] = biological target: KHK-C expressed in NRK-52E cells (Homo sapiens (Human), UniProt P50053); experiment: KHK-C Cell-based Assay (EC50), NRK CTG, fructose-mediated ATP-depletion
HepG2 cells = experiment: F1P Cell-Based Assay (EC50), 13C6-fructose-1-phosphate in HepG2 cells (cell culture medium or 50% human plasma); conditions: Homo sapiens
[2] = HepG2, HepG2 cells, 50% human plasma, read-out: F1P 50% HP EC50
[3] = HepG2, read-out: F1P 10% FBS EC50, HepG2 cells, cell culture medium (10% FBS)

Sequence of KHK-C expressed in NRK-52E cells (P50053 whole entry): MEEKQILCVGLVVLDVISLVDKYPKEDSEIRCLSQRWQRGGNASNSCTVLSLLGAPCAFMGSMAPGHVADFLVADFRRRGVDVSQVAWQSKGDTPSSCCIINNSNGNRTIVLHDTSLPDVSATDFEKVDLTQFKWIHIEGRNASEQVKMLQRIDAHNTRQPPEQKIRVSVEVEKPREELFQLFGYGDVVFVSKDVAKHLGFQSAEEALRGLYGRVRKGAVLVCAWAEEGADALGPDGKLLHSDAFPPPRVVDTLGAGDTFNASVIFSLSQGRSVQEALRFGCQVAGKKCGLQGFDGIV
Sequence of human KHK-C (P50053 whole entry): as above
Sequence of human KHK-A (P50053 other isoform, or with tags, fused parts or gaps): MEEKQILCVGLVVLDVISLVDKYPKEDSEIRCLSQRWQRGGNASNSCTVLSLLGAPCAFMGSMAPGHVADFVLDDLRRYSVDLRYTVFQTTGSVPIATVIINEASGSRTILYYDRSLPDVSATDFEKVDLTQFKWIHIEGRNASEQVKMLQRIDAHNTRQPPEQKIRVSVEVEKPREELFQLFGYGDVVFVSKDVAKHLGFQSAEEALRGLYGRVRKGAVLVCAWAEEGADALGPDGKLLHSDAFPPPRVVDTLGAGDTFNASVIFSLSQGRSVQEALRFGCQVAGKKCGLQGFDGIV

SMILES	IC50 (human KHK-C; ADP-Glo) [µM]	IC50 (human KHK-A; ADP-Glo) [µM]	EC50 [1] [µM]	EC50 (HepG2 cells; [2]) [µM]	EC50 (HepG2 cells; [3]) [µM]	IC50 (human KHK-C) [µM]	IC50 (human KHK-A) [µM]
C[C@H]1[C@H](O)CN1c1nc(-c2ccc3c(c2)OC[C@@]32NC(=O)N(C)C2=O)c2c(n1)C(F)(F)CC2 (single isomer, unassigned) [Example 826]	0.0003	0.0123	0.0042	0.0168	0.0157		
C[C@H]1CCN1c1nc(-c2ccc(C3(N)COC3)cc2)c2c(n1)C(F)(F)CC2 [Example 160, (S)-3-(4-(7,7-difluoro-2-(2-methylazetidin-1-yl)-6,7-dihydro-5H-cyclopenta[d]pyrimidin-4-yl)phenyl)oxetan-3-amine]	0.0009	0.0046	0.002	0.0134	0.0048		
C[C@H]1CCN1c1nc2c(c(-c3ccc(C4(N)CCC4)cc3)n1)CCC2 [Example 312, (S)-1-(4-(2-(2-methylazetidin-1-yl)-6,7-dihydro-5H-cyclopenta[d]pyrimidin-4-yl)phenyl)cyclobutan-1-amine]	0.0009	0.0012	0.0021	0.0093	0.0039		
C[C@H]1[C@H](F)CN1c1nc(-c2ccc(C3(N)COC3)cc2)c2c(n1)C(F)(F)CC2 [Example 468, 3-(4-(7,7-difluoro-2-((2S,3R)-3-fluoro-2-methylazetidin-1-yl)-6,7-dihydro-5H-cyclopenta[d]pyrimidin-4-yl)phenyl)oxetan-3-amine]			0.0043	0.0238	0.0076	0.0018	0.0053
C[C@@H]1N(c2nc(-c3ccc(C4(N)COC4)cc3)c3c(n2)C(F)(F)CC3)CC1(F)F [Example 470, (S)-3-(4-(2-(3,3-difluoro-2-methylazetidin-1-yl)-7,7-difluoro-6,7-dihydro-5H-cyclopenta[d]pyrimidin-4-yl)phenyl)oxetan-3-amine]			0.005	0.051	0.0134	0.0019	0.0063
C[C@H]1C[C@H](C)N1c1nc(-c2ccc(C3(N)COC3)cc2)c2c(n1)C(F)(F)CC2 [Example 504, 3-(4-(2-((2S,4S)-2,4-dimethylazetidin-1-yl)-7,7-difluoro-6,7-dihydro-5H-cyclopenta[d]pyrimidin-4-yl)phenyl)oxetan-3-amine]			0.0115	0.0347	0.0099	0.0023	0.0101
C[C@H]1[C@H](O)CN1c1nc(-c2ccc3c(c2)CC[C@]32NC(=O)N(CCO)C2=O)c2c(n1)C(F)(F)CC2 [Example 686, (58)-5′-[7,7-difluoro-2-[(2S,3R)-3-hydroxy-2-methyl-azetidin-1-yl]-5,6-dihydrocyclopenta[d]pyrimidin-4-yl]-3-(2-hydroxyethyl)spiro[imidazolidine-5,1′-indane]-2,4-dione]			0.0064	0.071	0.0678	0.0001	0.0167
CCCN1C(=O)NC2(COc3cc(-c4nc(N5C[C@@H](O)[C@@H]5C)nc5c4CCC5(F)F)ccc32)C1=O (stereo partly drawn) [Example 693, 6-[7,7-difluoro-2-[(2S,3R)-3-hydroxy-2-methyl-azetidin-1-yl]-5,6-dihydroeyelopenta[d]pyrimidin-4-yl]-3′-propyl-spiro[2H-benzofuran-3,5′-imidazolidine]-2′,4′-dione]			0.0064	0.141	0.0224	0.0002	0.0472
C[C@H]1[C@H](O)CN1c1nc(-c2ccc3c(c2)OCC32NC(=O)N(C3COC3)C2=O)c2c(n1)C(F)(F)CC2 (stereo partly drawn) [Example 694, 6-[7,7-difluoro-2-[(2S,3R)-3-hydroxy-2-methyl-azetidin-1-yl]-5,6-dihydroeyelopenta[d]pyrimidin-4-yl]-3′-(oxetan-3-yl)spiro[2H-benzofuran-3,5′-imidazolidine]-2′,4′-dione]			0.0172	0.109	0.0543	0.0004	0.0245
C[C@H]1[C@H](O)CN1c1nc(-c2ccc3c(c2)OCC32CN(CCO)C(=O)N2)c2c(n1)C(F)(F)CC2 (stereo partly drawn) [Example 700, 6-[7,7-difluoro-2-[(2S,3R)-3-hydroxy-2-methyl-azetidin-1-yl]-5,6-dihydrocyclopenta[d]pyrimidin-4-yl]-1′-(2-hydroxyethyl)spiro[2H-benzofuran-3,4′-imidazolidine]-2′-one]			0.0373	0.249	0.163	0.0002	0.0161

Results, then the compound that gave them:

IC50 (human KHK-C; ADP-Glo) [µM]	IC50 (human KHK-A; ADP-Glo) [µM]	EC50 [1] [µM]	EC50 (HepG2 cells; [2]) [µM]	EC50 (HepG2 cells; [3]) [µM]	IC50 (human KHK-C) [µM]	IC50 (human KHK-A) [µM]	SMILES
0.0041	0.0064	0.0972	0.0429	0.0274			C[C@H]1[C@H](O)CN1c1nc(-c2cc3c(c(S(N)(=O)=O)c2)OCC3)c2c(n1)C(F)(F)CC2 [Example 351, 5-(7,7-difluoro-2-((2S,3R)-3-hydroxy-2-methylazetidin-1-yl)-6,7-dihydro-5H-cyclopenta[d]pyrimidin-4-yl)-2,3-dihydrobenzofuran-7-sulfonamide]
		0.0041	0.0444	0.0287	0.0001	0.0106	C[C@H]1[C@H](O)CN1c1nc(-c2ccc3c(c2)CC[C@]32NC(=O)N(C)C2=O)c2c(n1)C(F)(F)CC2 [Example 488, (58)-5′-[7,7-difluoro-2-[(2S,3R)-3-hydroxy-2-methyl-azetidin-1-yl]-5,6-dihydrocyclopenta[d]pyrimidin-4-yl]-3-methyl-spiro[imidazolidine-5,1′-indane]-2,4-dione]
		0.008	0.0246	0.0035	0.0011	0.0002	COc1ccc(-c2nc(N3C[C@@H](F)[C@@H]3C)nc3c2CCC3(F)F)cc1[S@@](C)(=N)=O [Example 561, (S)-(5-(7,7-difluoro-2-((2S,3R)-3-fluoro-2-methylazetidin-1-yl)-6,7-dihydro-5H-cyclopenta[d]pyrimidin-4-yl)-2-methoxyphenyl)(imino)(methyl)-λ^6-sulfanone]
		0.0058	0.0036	0.0011	0.0014	0.0003	COc1ccc(-c2nc(N3C[C@H](F)[C@@H]3C)nc3c2CCC3(F)F)cc1[S@@](C)(=N)=O [Example 562, (S)-(5-(7,7-difluoro-2-((2S,3S)-3-fluoro-2-methylazetidin-1-yl)-6,7-dihydro-5H-cyclopenta[d]pyrimidin-4-yl)-2-methoxyphenyl)(imino)(methyl)-λ^6-sulfanone]
		0.0051	0.0067	0.0006	0.0017	0.0002	COc1ccc(-c2nc(N3CC(F)(F)[C@@H]3C)nc3c2CCC3(F)F)cc1[S@@](C)(=N)=O [Example 563, (S)-(5-(2-((S)-3,3-difluoro-2-methylazetidin-1-yl)-7,7-difluoro-6,7-dihydro-5H-cyclopenta[d]pyrimidin-4-yl)-2-methoxyphenyl)(imino)(methyl)-λ^6-sulfanone]
		0.0981	0.142	0.0385	0.0244	0.0116	C[C@H]1[C@H](O)CN1c1nc(-c2ccc(OC(F)(F)F)c(S(C)(=N)=O)c2)c2c(n1)C(F)(F)CC2 (stereo partly drawn) [Example 564, (5-(7,7-difluoro-2-((2S,3R)-3-hydroxy-2-methylazetidin-1-yl)-6,7-dihydro-5H-cyclopenta[d]pyrimidin-4-yl)-2-(trifluoromethoxy)phenyl)(imino)(methyl)-λ^6-sulfanone]
		0.0193	0.204	0.0503	0.0026	0.0328	C[C@H]1[C@H](O)CN1c1nc(-c2ccc3c(c2)OCC32NC(=O)OC2(C)C)c2c(n1)C(F)(F)CC2 (stereo partly drawn) [Example 565, 6-(7,7-difluoro-2-((2S,3R)-3-hydroxy-2-methylazetidin-1-yl)-6,7-dihydro-5H-cyclopenta[d]pyrimidin-4-yl)-5′,5′-dimethyl-2H-spiro[benzofuran-3,4′-oxazolidin]-2′-one]
		0.0103	0.213	0.0271	0.0005	0.0162	C[C@H]1[C@H](O)CN1c1nc(-c2ccc3c(c2)OCC32CN(C)C(=O)N2)c2c(n1)C(F)(F)CC2 (stereo partly drawn) [Example 695, 6-[7,7-difluoro-2-[(2S,3R)-3-hydroxy-2-methyl-azetidin-1-yl]-5,6-dihydroeyelopenta[d]pyrimidin-4-yl]-1′-methyl-spiro[2H-benzofuran-3,4′-imidazolidine]-2′-one]
		0.0328	0.492	0.0852	0.0003	0.0887	C[C@H]1[C@H](O)CN1c1nc(-c2ccc3c(c2)OCC32NC(=O)N(CC(F)(F)F)C2=O)c2c(n1)C(F)(F)CC2 (stereo partly drawn) [Example 699, 6-[7,7-difluoro-2-[(2S,3R)-3-hydroxy-2-methyl-azetidin-1-yl]-5,6-dihydrocyclopenta[d]pyrimidin-4-yl]-3′-(2,2,2-trifluoroethyl)spiro[2H-benzofuran-3,5′-imidazolidine]-2′,4′-dione]
		> 0.5	> 0.5	> 0.5	> 0.1	> 0.1	COc1c(Cl)cc(-c2nc(N3C[C@@H](O)[C@@H]3C)nc3c2CCC3(F)F)cc1S(C)(=N)=O (stereo partly drawn) [Example 717, (3-chloro-5-(7,7-difluoro-2-((2S,3R)-3-hydroxy-2-methylazetidin-1-yl)-6,7-dihydro-5H-cyclopenta[d]pyrimidin-4-yl)-2-methoxyphenyl)(imino)(methyl)-λ^6-sulfanone]
